Experimental data from article PMC10290137, “Systems-level analyses of protein-protein interaction network dysfunctions via epichaperomics identify cancer-specific mechanisms of stress adaptation” (Nature Communications, 2023).
Like-named read-outs stand apart in the source and are kept apart here.

How the values were obtained:
HSC70 [1] = test system: T1, HSC70; assay: CETSA in MDA-MB-468 cells and homogenates; the value is the IC50 for epiHSP70s disruption in cancer cells; type: cell-based
T1 construct: gene HSPA8; endogenous epiHSP70 epichaperome assemblies in human cancer cells (probably MDA-MB-468); HSC70/HSP70 pool, no recombinant construct

HSC70 [2] = test system: T1, HSC70; assay: as above; type: cell-based; remark: listed apart in the source
Excerpt: CETSA in MDA-MB-468 cells and homogenates; the value is the IC50 for epiHSP70s disruption in cancer cells (b12) on HSC70 | three evaluated YKs—YK5, YK198 and LSI137—we observed in CETSA, performed both in cells and cell homogenates, a significant thermal stabilization

HSC70 [3] = target: T2, HSC70 (Homo sapiens, UniProt P11142); assay: reconstituted purified HSC70: fluorescence anisotropy peptide release ([…] YK198) and stopped-flow MABA-ATP binding ([…]); also CETSA; type: biochemical
T2 construct: gene HSPA8
T2 sequence (P11142 2-646): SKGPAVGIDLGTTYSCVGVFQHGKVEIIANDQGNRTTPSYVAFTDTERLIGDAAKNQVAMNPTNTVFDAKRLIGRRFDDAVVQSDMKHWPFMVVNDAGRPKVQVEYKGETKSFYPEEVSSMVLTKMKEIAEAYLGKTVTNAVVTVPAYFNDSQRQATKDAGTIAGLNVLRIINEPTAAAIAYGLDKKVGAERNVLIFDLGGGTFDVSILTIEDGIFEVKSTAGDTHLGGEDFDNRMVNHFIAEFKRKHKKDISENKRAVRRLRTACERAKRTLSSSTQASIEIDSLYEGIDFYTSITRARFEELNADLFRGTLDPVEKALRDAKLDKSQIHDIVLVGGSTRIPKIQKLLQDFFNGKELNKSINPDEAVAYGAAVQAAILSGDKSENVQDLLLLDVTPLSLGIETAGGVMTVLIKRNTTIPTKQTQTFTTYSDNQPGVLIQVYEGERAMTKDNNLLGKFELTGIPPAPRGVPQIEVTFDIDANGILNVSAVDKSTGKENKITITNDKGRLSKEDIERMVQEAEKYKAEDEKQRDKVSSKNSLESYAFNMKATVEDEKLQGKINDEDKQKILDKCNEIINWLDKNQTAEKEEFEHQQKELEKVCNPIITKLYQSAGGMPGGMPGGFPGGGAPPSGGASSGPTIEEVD

For COc1cccc(COc2nc(N3CCC(N(C)C)C3)ncc2Sc2ccc(N)nc2)c1 (stereo not drawn) [LSI137], which IC50 (HSC70 [1]) is on record?
The IC50 was 0.06 µM.

Which IC50 (HSC70 [2]) does the source give for C=CC(=O)Nc1cc(N)nc(Sc2c(OC)nc(N3CCN(C)CC3)nc2OC)n1 [YK5] here?
The IC50 was 5 µM.

Which “reconstituted purified HSC70: fluorescence anisotropy peptide release (100 uM YK)” value (HSC70 [3]) does the source give for CN1CCN(c2ncc(Sc3ccc(N)nc3)c(OCc3ccccc3)n2)CC1 [YK198] here?
The value was “biochemical effect of YKs on HSP70s manifests majorly at the allosteric release of the interactor protein, impairing its release”.
